Measurements published in patent US20240124444A1 (Celgene Corporation, priority 2020, published 2024).
Where two headings read alike, the source gives them in different places.

Tested on: C. parvum strain UGA1
Assay: C. parvum growth inhibition assay (Nluc luminescence in HCT-8 cells)
Format: cell-based, Cryptosporidium parvum
Details: for inhibition at 1 µM / inhibition at 10 µM / EC50: Cryptosporidium parvum; for inhibition at 1 µM / inhibition at 10 µM: HCT-8; for inhibition at 1 µM: read-out: % inh @ 1 uM C. parvum; for inhibition at 10 µM: read-out: % inh @ 10 uM C. parvum; for EC50: HCT-8, 48 h, C. parvum growth inhibition in HCT-8 cells, 48 hours, 6 concentrations 10-0.04 μM
[1] = single point inhibition at 1 uM
[2] = single point inhibition at 10 uM
[3] = single point inhibition @ 10 uM

| SMILES | inhibition at 1 µM (single point inhibition @ 1 uM) | inhibition at 10 µM [3] | EC50 | other results |
| --- | --- | --- | --- | --- |
| Cn1cc(C(=O)Nc2cc3[nH]c(-c4cnc(C(F)(F)F)cn4)cc3cn2)cn1 [Example 304, 1-methyl-N-(2-(5-(trifluoromethyl)pyrazin-2-yl)-1H-pyrrolo[3,2-c]pyridin-6-yl)-1H-pyrazole-4-carboxamide] | – | – | – | inhibition at 1 µM [1]: 33 to 66%; inhibition at 10 µM [2]: 0 to 33% |
| COC(=O)Nc1cc2[nH]c(-c3ccnc(C)c3)cc2cn1 [Example 174, methyl 2-(2-methylpyridin-4-yl)-1H-pyrrolo[3,2-c]pyridin-6-ylcarbamate] | 0 to 33% | 67 to 100% | – | – |
| N#Cc1cc(-c2cc3cnc(Nc4cccc(-c5nnc[nH]5)c4)cc3[nH]2)ccn1 [Example 79, 4-(6-(3-(4H-1,2,4-triazol-3-yl)phenylamino)-1H-pyrrolo[3,2-c]pyridin-2-yl)picolinonitrile] | 33 to 66% | 67 to 100% | > 1 µM | – |
| Cc1cc(-c2cc3cnc(NC(=O)[C@H]4C[C@H](O)C4)cc3[nH]2)ccn1 [Example 187, (1r,3r)-3-hydroxy-N-(2-(2-methylpyridin-4-yl)-1H-pyrrolo[3,2-c]pyridin-6-yl)cyclobutanecarboxamide] | 33 to 66% | 67 to 100% | – | – |
| N#Cc1cc2cnc(Nc3cc(-c4nc[nH]n4)cc(C4CCOCC4)c3)cc2[nH]1 [Example 208, 6-(3-(tetrahydro-2H-pyran-4-yl)-5-(1H-1,2,4-triazol-3-yl)phenylamino)-1H-pyrrolo[3,2-c]pyridine-2-carbonitrile] | – | – | – | inhibition at 1 µM [1]: 0 to 33%; inhibition at 10 µM [2]: 67 to 100% |
| CCn1c(-c2ccnc(OC)n2)cc2cnc(NC(=O)C3CC3)cc21 [Example 344, N-(1-ethyl-2-(2-methoxypyrimidin-4-yl)-1H-pyrrolo[3,2-c]pyridin-6-yl)cyclopropanecarboxamide] | – | – | 0.5 to 1 µM | – |
| Cc1cc(-c2[nH]c3cc(NC4CCCCC4)ncc3c2C)ccn1 [Example 369, N-cyclohexyl-3-methyl-2-(2-methylpyridin-4-yl)-1H-pyrrolo[3,2-c]pyridin-6-amine] | – | – | > 1 µM | – |
| C[C@H]1C[C@@H]1C(=O)Nc1cc2[nH]c(-c3ccnc(C(F)(F)F)n3)cc2cn1 (stereo in doubt) [Example 262, (1S,2S)-2-methyl-N-(2-(2-(trifluoromethyl)pyrimidin-4-yl)-1H-pyrrolo[3,2-c]pyridin-6-yl)cyclopropanecarboxamide] | – | – | – | inhibition at 1 µM [1]: 0 to 33%; inhibition at 10 µM [2]: 0 to 33% |
| Cc1cc(-c2cc3cnc(NC(=O)CN4CCCC4)cc3n2C)ncn1 [Example 128, N-(1-methyl-2-(6-methylpyrimidin-4-yl)-1H-pyrrolo[3,2-c]pyridin-6-yl)-2-(pyrrolidin-1-yl)acetamide] | – | – | > 1 µM | – |
| Cn1cc(C(=O)Nc2cc3c(cn2)cc(-c2ccnc(NCC(F)F)n2)n3C)cn1 [Example 144, N-(2-(2-(2,2-difluroethylamino)pyrimidin-4-yl)-1-methyl-1H-pyrrolo[3,2-c]pyridin-6-yl)-1-methyl-1H-pyrazole-4-carboxmaide] | 0 to 33% | 67 to 100% | – | – |
| Cn1cc(C(=O)Nc2cc3[nH]c(-c4ccnc(OCC(F)(F)F)n4)cc3cn2)cn1 [Example 308, 1-methyl-N-(2-(2-(2,2,2-trifluoroethoxy)pyrimidin-4-yl)-1H-pyrrolo[3,2-c]pyridin-6-yl)-1H-pyrazole-4-carboxamide] | – | – | – | inhibition at 1 µM [1]: 0 to 33%; inhibition at 10 µM [2]: 0 to 33% |
| Cc1cc(-c2cc3cnc(NC(=O)N4CCCC4)cc3[nH]2)ccn1 [Example 261, N-(2-(2-methylpyridin-4-yl)-1H-pyrrolo[3,2-c]pyridin-6-yl)pyrrolidine-1-carboxamide] | – | – | – | inhibition at 1 µM [1]: 0 to 33%; inhibition at 10 µM [2]: 0 to 33% |
| Cc1ccccc1-c1cc2cnc(NC3CCOCC3)cc2[nH]1 [Example 357, N-(tetrahydro-2H-pyran-4-yl)-2-o-tolyl-1H-pyrrolo[3,2-c]pyridin-6-amine] | – | – | > 1 µM | – |
| CN1CCC(C(=O)Nc2cc3[nH]c(C(F)(F)F)cc3cn2)CC1 [Example 109, 1-methyl-N-(2-(trifluoromethyl)-1H-pyrrolo[3,2-c]pyridin-6-yl)piperidine-4-carboxamide] | – | – | > 1 µM | – |
| COc1nccc(-c2cc3cnc(NC(=O)c4cn(CC5CCOC5)nc4C)cc3[nH]2)n1 (stereo in doubt) [Example 246, (R)-N-(2-(2-methoxypyrimidin-4-yl)-1H-pyrrolo[3,2-c]pyridin-6-yl)-3-methyl-1-((tetrahydrofuran-3-yl)methyl)-1H-pyrazole-4-carboxamide] | – | – | – | inhibition at 1 µM [1]: 0 to 33%; inhibition at 10 µM [2]: 0 to 33% |
| CCc1cc2cnc(NC3CCOCC3)cc2[nH]1 [Example 361, 2-ethyl-N-(tetrahydro-2H-pyran-4-yl)-1H-pyrrolo[3,2-c]pyridin-6-amine] | – | – | > 1 µM | – |
| Cn1cc(C(=O)Nc2cc3[nH]c(-c4ccnc(O[C@H]5CC[C@H](O)CC5)n4)cc3cn2)cn1 [Example 85, N-(2-(2-((1r,4r)-4-hydroxycyclohexyloxy)pyrimidin-4-yl)-1H-pyrrolo[3,2-c]pyridin-6-yl)-1-methyl-1H-pyrazole-4-carboxamide] | 67 to 100% | 0 to 33% | > 1 µM | – |
| Cc1cc(-c2cc3cnc(NC(=O)[C@H]4CCCO4)cc3[nH]2)ccn1 [Example 212, (R)-N-(2-(2-methylpyridin-4-yl)-1H-pyrrolo[3,2-c]pyridin-6-yl)tetrahyrdofuran-2-carboxamide] | – | – | – | % inh @ 1 uM C. parvum [1]: D (single point inhibition values of 0-33% (activity level D)); % inh @ 10 uM C. parvum [2]: F (between 67% and 100% (activity level F)) |
| N#Cc1cc2cnc(Nc3cccc(-c4nc[nH]n4)c3)cc2[nH]1 [Example 145, 6-(3-(1H-1,2,4-triazol-3-yl)phenylamino)-1H-pyrrolo[3,2-c]pyridine-2-carbonitrile] | 0 to 33% | 67 to 100% | – | – |
| O=S(=O)(Nc1cc2[nH]c(C(F)(F)F)cc2cn1)C1CC1 [Example 106, N-(2-(trifluoromethyl)-1H-pyrrolo[3,2-c]pyridin-6-yl)cyclopropanesulfonamide] | – | – | > 1 µM | – |
| Cc1cc(-c2cc3cnc(NC(=O)[C@H]4C[C@@H](O)C4)cc3[nH]2)ccn1 [Example 194, (1s,3s)-3-hydroxy-N-(2-(2-methypyridin-4-yl)-1H-pyrrolo[3,2-c]pyridin-6-yl)cyclobutanecarboxamide] | 0 to 33% | 67 to 100% | – | – |
| COc1nccc(-c2cc3cnc(NC(=O)C4C5CCCCC54)cc3n2C)n1 (stereo not shown) [Example 211, N-(2-(2-methoxypyrimidin-4-yl)-1-methyl-1H-pyrrolo[3,2-c]pyridin-6-yl)bicyclo[4.1.0]heptane-7-carboxamide] | – | – | – | inhibition at 1 µM [1]: 0 to 33%; inhibition at 10 µM [2]: 67 to 100% |
| Cn1cc(Nc2cc3[nH]c(C#N)cc3cn2)cn1 [Example 164, 6-(1-methyl-1H-pyrazol-4-ylamino)-1H-pyrrolo[3,2-c]pyridine-2-carbonitrile] | 0 to 33% | 67 to 100% | – | – |
| Cc1ccnc(-c2cc3cnc(NC4CCOCC4)cc3[nH]2)c1 [Example 350, 2-(4-methylpyridin-2-yl)-N-(tetrahydro-2H-pyran-4-yl)-1H-pyrrolo[3,2-c]pyridin-6-amine] | – | – | > 1 µM | – |
| O=C(Nc1cc2[nH]c(-c3cnc(C(F)(F)F)s3)cc2cn1)C1CC1 [Example 103, N-(2-(2-(trifluoromethyl)thiazol-5-yl)-1H-pyrrolo[3,2-c]pyridin-6-yl)cyclopropanecarboxamide] | – | – | > 1 µM | – |
